According to ChEMBL document CHEMBL5528053, “Discovery of Novel Isoquinoline Analogues as Dual Tubulin Polymerization/V-ATPase Inhibitors with Immunogenic Cell Death Induction” (J Med Chem, 2024):
pIC50: −log10 of the molar value. Active and inactive are the calls of the source. The calls are words filed in the database; no cut-off is given here.

How the values were obtained:
PC-3 [1] = experiment: Induction of apoptosis in human PC-3 cells assessed as necrotic cells at 200 nM measured after 24 hrs by annexin V-FITC and PI staining based flow cytometry analysis (reference value: 6.01%); type: functional
PC-3 [2] = experiment: Induction of cell cycle arrest in human PC-3 cells assessed as accumulation of cells at G1 phase at 100 nM incubated for 24 hrs by flow cytometry analysis (reference value: 49.4%); type: functional
DU-145 = experiment: Antiproliferative activity against human DU-145 cells assessed as inhibition of cell growth after 72 hrs by MTT assay; type: functional, cell-based; conditions: DU-145, 72 h
PC-3 [3] = experiment: Induction of immunogenic cell death in human PC-3 cells assessed as increase in CRT translocation to cell surface at 50 to 200 nM measured after 12 hrs by DAPI staining based analysis; type: functional; conditions: dose 50-200 nM
PC-3 [4] = experiment: Induction of apoptosis in human PC-3 cells assessed as early apoptotic cells at 100 nM measured after 24 hrs by annexin V-FITC and PI staining based flow cytometry analysis (reference value: 1.03%); type: functional
[5] = Antitumor activity against mouse RM1 cells homografted in C57BL/6 mouse model assessed as tumor growth inhibition at 10 mg/kg, iv administered every two days for 14 days by vernier caliper based analysis relative to control; type: functional; conditions: RM1, 336 h, time 14 day, read-out: TGI
PC-3 [6] = experiment: Upregulation of detyrosinated-alpha tubulin expression in human PC-3 cells incubated for 24 hrs by Western blot analysis; type: functional, cell-based; conditions: dose 50-200 nM
[7] = Toxicity in ICR mouse assessed as effect on LDH level at 10 mg/kg, ip measured for 14 days; type: organism-based; conditions: in vivo, 336 h, time 14 day
PC-3 [8] = experiment: Induction of apoptosis in human PC-3 cells assessed as necrotic cells at 100 nM measured after 24 hrs by annexin V-FITC and PI staining based flow cytometry analysis (reference value: 6.01%); type: functional
PC-3 [9] = experiment: Induction of cell cycle arrest in human PC-3 cells assessed as accumulation of cells at G2/M phase at 100 nM incubated for 24 hrs by flow cytometry analysis (reference value: 19.5%); type: functional
PC-3 [10] = experiment: Upregulation of intracellular eIF2alpha expression at […] residues in human PC-3 cells incubated for 24 hrs by DAPI staining based analysis; type: functional, cell-based; conditions: dose 50-200 nM
PC-3 [11] = experiment: Antiproliferative activity against human PC-3 cells assessed as inhibition of cell growth after 72 hrs by MTT assay; type: functional, cell-based; conditions: PC-3, 72 h
PC-3 [12] = experiment: Inhibition of V-ATPase activity in human PC-3 cells at 100 nM measured after 24 hrs by colorimetric assay relative to control; type: cell-based
MDA-MB-231 = experiment: Antiproliferative activity against human MDA-MB-231 cells assessed as inhibition of cell growth after 72 hrs by MTT assay; type: functional, cell-based; conditions: MDA-MB-231, 72 h
[13] = Toxicity in ICR mouse assessed as effect on CK level at 10 mg/kg, ip measured for 14 days; type: organism-based; conditions: in vivo, 336 h, time 14 day
PC-3 [14] = experiment: Induction of cell cycle arrest in human PC-3 cells assessed as accumulation of cells at G2/M phase at 200 nM incubated for 24 hrs by flow cytometry analysis (reference value: 19.5%); type: functional
PC-3 [15] = experiment: Inhibition of V-ATPase activity in lysosomes of human PC-3 cells assessed as decrease in fluorescence at 50 to 200 nM incubated for 24 hrs by acridine orange staining based inverted fluorescent microscopic analysis; type: subcellular; conditions: Lysosome, dose 50-200 nM
PC-3 [16] = experiment: Downregulation of acetyl-alpha tubulin expression in human PC-3 cells incubated for 24 hrs by Western blot analysis; type: functional, cell-based; conditions: dose 50-200 nM
RM1 = experiment: Anticancer activity against mouse RM1 cells assessed as increase in CRT expression at 400 nM measured after 24 hrs by flow cytometry analysis; type: functional, cell-based
PC-3 [17] = experiment: Induction of cell cycle arrest in human PC-3 cells assessed as accumulation of cells at S phase at 100 nM incubated for 24 hrs by flow cytometry analysis (reference value: 31.3%); type: functional
PC-3 [18] = experiment: Inhibition of autophagy in human PC-3 cells assessed as decrease in colocalization region at 50 to 200 uM measured after 3 hrs by immunofluorescence imaging based analysis; type: functional, cell-based; conditions: dose 50-200 µM
PC-3 [19] = experiment: Induction of cell cycle arrest in human PC-3 cells assessed as reduction in CDC2 phosphorylation at Thr161 residue at 50 to 200 nM incubated for 24 hrs by DAPI staining based analysis; type: functional; conditions: dose 50-200 nM
PC-3 [20] = experiment: Induction of cell cycle arrest in human PC-3 cells assessed as accumulation of cells at G1 phase at 50 nM incubated for 24 hrs by flow cytometry analysis (reference value: 49.4%); type: functional

Compound `COc1cc(-c2nc(C(N)=O)cc3cc4c(cc23)OCCO4)cc(Br)c1OC` has an Activity (PC-3 [1]) of 6.91%, an Activity (PC-3 [2]) of 34.1% and a pIC50 (DU-145) of 6.96. For the same compound, the Activity (PC-3 [3]) was “Active”, the Activity (PC-3 [4]) was 21.6% and the inhibition in vivo at 10 mg/kg [5] was 70.2%. The Activity (PC-3 [6]) was “Dose-Dependent Effect”, the Activity [7] was “Non-Toxic” and the Activity (PC-3 [8]) was 6.41%. The Activity (PC-3 [9]) was 42.8%, the Activity (PC-3 [10]) was “Dose-Dependent Effect” and the pIC50 (PC-3 [11]) was 7.22. For the same compound, the inhibition (PC-3 [12]) was 26.2%, the pIC50 (MDA-MB-231) was 6.89 and the Activity [13] was “Non-Toxic”. For the same compound, the Activity (PC-3 [14]) was 65.8%, the inhibition (PC-3 [15]) was “Active” and the Activity (PC-3 [16]) was “Dose-Dependent Effect”. For the same compound, the Activity (RM1) was “Active”, the Activity (PC-3 [17]) was 22.3% and the inhibition (PC-3 [18]) was “Active”. The Activity (PC-3 [19]) was “Active” and the Activity (PC-3 [20]) was 39.8%.
